The values below come from patent US9751854B2 (Millennium Pharmaceuticals, Inc., priority 2014, dated 2017).

pIC50: −log10 of the molar value. Some results are limits rather than exact numbers.

Sequence of human VPS34 (Q8NEB9 whole entry): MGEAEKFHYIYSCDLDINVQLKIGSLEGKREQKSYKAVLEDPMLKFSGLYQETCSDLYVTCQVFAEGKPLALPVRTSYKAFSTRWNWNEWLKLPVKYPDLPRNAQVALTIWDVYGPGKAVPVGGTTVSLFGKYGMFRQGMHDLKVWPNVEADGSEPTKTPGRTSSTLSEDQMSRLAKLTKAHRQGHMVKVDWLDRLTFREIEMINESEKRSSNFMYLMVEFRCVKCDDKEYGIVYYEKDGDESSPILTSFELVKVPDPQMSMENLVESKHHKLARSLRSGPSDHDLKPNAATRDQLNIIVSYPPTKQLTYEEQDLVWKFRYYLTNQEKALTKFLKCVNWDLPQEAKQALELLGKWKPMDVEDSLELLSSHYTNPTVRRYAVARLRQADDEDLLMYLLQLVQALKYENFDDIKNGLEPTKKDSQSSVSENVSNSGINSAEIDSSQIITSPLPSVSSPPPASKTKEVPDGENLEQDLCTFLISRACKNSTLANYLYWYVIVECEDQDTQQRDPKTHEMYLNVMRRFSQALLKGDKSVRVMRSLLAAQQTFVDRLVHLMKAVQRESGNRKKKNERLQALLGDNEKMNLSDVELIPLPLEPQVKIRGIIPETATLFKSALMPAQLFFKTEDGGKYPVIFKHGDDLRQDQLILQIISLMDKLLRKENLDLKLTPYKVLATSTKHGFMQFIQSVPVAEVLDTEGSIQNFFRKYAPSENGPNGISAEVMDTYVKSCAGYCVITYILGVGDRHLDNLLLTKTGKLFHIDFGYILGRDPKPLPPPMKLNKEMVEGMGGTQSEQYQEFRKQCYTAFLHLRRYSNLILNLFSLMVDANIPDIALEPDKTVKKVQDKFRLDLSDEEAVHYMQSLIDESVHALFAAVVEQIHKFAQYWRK

One test addresses human VPS34 (Homo sapiens (Human), UniProt Q8NEB9). Briefly: Human VPS34 enzyme assay (Adapta TR-FRET ADP detection). In kind it is biochemical. Details: Percent Inhibition: dose or concentration left out as unconfirmed.
Details: not given
(TR-FRET usually uses a lanthanide donor and a delayed reading to cut background.)
In the case of `Cc1nccc(Nc2cc(-c3cnc(N)c(C(=O)N(C)C45CC(C4)C5)c3)ccn2)n1` [Compound I-277, 6-amino-N-(bicyclo[1.1.1]pent-1-yl)-N-methyl-2′-[(2-methylpyrimidin-4-yl)amino]-3,4′-bipyridine-5-carboxamide], the “Percent Inhibition” value is recorded as 100%.
In the case of `CNc1ncc(-c2ccnc(NC(C)=O)c2)cc1NS(=O)(=O)c1ccc(F)cc1F` [Compound I-31, N-[5-{[(2,4-difluorophenyl)sulfonyl]amino}-6-(methylamino)-3,4′-bipyridin-2′-yl)acetamide], the “Percent Inhibition” value was greater than 99%.

Staying with this test, now noted: IC50 range class.
Take `COc1nc(C)nc(Nc2cc(-c3cnc(C)c(NS(=O)(=O)c4ccc(F)cc4F)c3)ccn2)n1` [Compound I-375, 2,4-difluoro-N-{2′-[(4-methoxy-6-methyl-1,3,5-triazin-2-yl)amino]-6-methyl-3,4′-bipyridin-5-yl}benzenesulfonamide]: the negative logarithm of the IC50 (pIC50) (as a rule, the negative decadic logarithm of the IC50, by convention in mol/L) was greater than 8.00.
The same measure, in the same setting: under `CC(=O)Nc1cc(-c2cnc(C)c(N3CCCNC3=O)c2)ccn1` [Compound I-460, N-[6-methyl-5-(2-oxotetrahydropyrimidin-1(2H)-yl)-3,4′-bipyridin-2′-yl]acetamide] stands less than 7.00; under `CC(=O)Nc1cc(-c2cnc(Cl)c(NS(=O)(=O)c3c(Cl)cccc3Cl)c2C)ccn1` [Compound I-354, N-(6-chloro-5-{[(2,6-dichlorophenyl)sulfonyl]amino}-4-methyl-3,4′-bipyridin-2′-yl)acetamide], 7.30 to 8.00; under `Cc1c(-c2ccnc(Nc3ccnc(C4CC4)n3)c2)cnc(Cl)c1C(=O)N1CC(C)(C)C1` [Compound I-466, (6-chloro-2′-[(2-cyclopropylpyrimidin-4-yl)amino]-4-methyl-3,4′-bipyridin-5-yl](3,3-dimethylazetidin-1-yl)methanone], 7.30 to 8.00.
On the same count and under the same terms, in the case of `CC(=O)Nc1cc(-c2cnc(C)c(NS(=O)(=O)c3ccccc3)c2)ccn1` [Compound I-84, N-{6-methyl-5-[(phenylsulfonyl)amino]-3,4′-bipyridin-2′-yl}acetamide] it was greater than 8.00; in that of `Cc1ncc(-c2ccnc(Nc3ccccn3)c2)cc1NS(=O)(=O)c1ccc(F)cc1F` [Compound I-297, 2,4-difluoro-N-[6-methyl-2′-(pyridin-2-ylamino)-3,4′-bipyridin-5-yl]benzenesulfonamide], 7.30 to 8.00; in that of `CC(=O)Nc1cc(-c2cncc(N3CCCS3(=O)=O)c2)ccn1` [Compound I-192, N-[5-(1,1-dioxidoisothiazolidin-2-yl)-3,4′-bipyridin-2′-yl]acetamide], 7.00 to 7.30.
Same read-out and setting: under `COc1ncc(-c2ccnc(NC(C)=O)c2)cc1S(=O)(=O)NC12CC(C1)C2` [Compound I-470] stands 7.30 to 8.00.
For `CC(=O)Nc1cc(-c2cncc(S(C)(=O)=O)c2)ccn1` [Compound I-51, N-[5-(methylsulfonyl)-3,4′-bipyridin-2′-yl]acetamide], the negative logarithm of the IC50 (pIC50) was 7.00 to 7.30.
Regarding `Cc1nccc(Nc2cc(-c3cnc(N)c(C(=O)N(C)C45CC(C4)C5)c3)ccn2)n1` [Compound I-277, 6-amino-N-(bicyclo[1.1.1]pent-1-yl)-N-methyl-2′-[(2-methylpyrimidin-4-yl)amino]-3,4′-bipyridine-5-carboxamide], the negative-log IC50 (pIC50) was greater than 8.00.
Same read-out and setting: under `CC(=O)Nc1cc(-c2cnc(N(C)C)c(S(=O)(=O)Nc3ccc(F)cc3F)c2)ccn1` [Compound I-491, N-{5-[(2,4-difluorophenyl)sulfamoyl]-6-(dimethylamino)-3,4′-bipyridin-2′-yl}acetamide] stands 7.30 to 8.00; under `Cc1nccc(Nc2cc(-c3cnc(Cl)c(C(=O)N4CCC4)c3)ccn2)n1` [Compound I-232, azetidin-1-yl[6-chloro-2′-[(2-methylpyrimidin-4-yl)amino]-3,4′-bipyridin-5-yl}methanone], 7.30 to 8.00.
On the same count and under the same terms, in the case of `CC(=O)Nc1cc(-c2cnc(C)c(NS(=O)(=O)c3c(Cl)cccc3Cl)c2)ccn1` [Compound I-463, N-[5-{[(2,6-dichlorophenyl)sulfonyl]amino}-6-methyl-3,4′-bipyridin-2′-yl)acetamide] it was greater than 8.00; in that of `CC(=O)Nc1cc(-c2cnc3[nH]c(C)nc3c2)ccn1` [Compound I-66, N-[4-(2-methyl-3H-imidazo[4,5-b]pyridin-6-yl)pyridin-2-yl]acetamide], less than 7.00.
In turn, `CC(=O)Nc1cc(-c2cnc(N)c(S(=O)(=O)N(C)c3ccccc3)c2)ccn1` [Compound I-37, N-{6-amino-5-[methyl(phenyl)sulfamoyl]-3,4′-bipyridin-2′-yl}acetamide] gave a pIC50 greater than 8.00.
`COC(=O)Nc1cc(-c2cnc(C)c(NS(=O)(=O)c3ccc(Cl)cc3F)c2)ccn1` [Compound I-417, methyl (5-{[(4-chloro-2-fluorophenyl)sulfonyl]amino}-6-methyl-3,4′-bipyridin-2′-yl)carbamate]: the negative logarithm of the IC50 (pIC50) was greater than 8.00.
As for `CC(=O)Nc1cc(-c2cnc3[nH]cc(CN4CCCC4)c3c2)ccn1` [Compound I-54, N-{4-[3-(pyrrolidin-1-ylmethyl)-1H-pyrrolo[2,3-b]pyridin-5-yl]pyridin-2-yl}acetamide], the pIC50 was less than 7.00.
With `CC(=O)Nc1cc(-c2cnc(C)c(NS(=O)(=O)N(C)C)c2C)ccn1` [Compound I-260, N-{5-[(dimethylsulfamoyl)amino]-4,6-dimethyl-3,4′-bipyridin-2′-yl}acetamide], the pIC50 was 7.30 to 8.00.
Still for that read-out and setting: under `CC(=O)Nc1cc(-c2cnc(Cl)c(NS(=O)(=O)c3ccc(C(F)(F)F)cc3Cl)c2C)ccn1` [Compound I-333, N-(6-chloro-5-(2-chloro-4-(trifluoromethyl)phenylsulfonamido)-4-methyl-[3,4′-bipyridin]-2′-yl)acetamide] stands 7.30 to 8.00; under `Cc1ncc(-c2ccnc(Nc3ccnc(C4CC4)n3)c2)cc1C(=O)N1CCC1` [Compound I-246, azetidin-1-yl{2′-[(2-cyclopropylpyrimidin-4-yl)amino]-6-methyl-3,4′-bipyridin-5-yl}methanone], 7.30 to 8.00.
`CC(=O)Nc1cc(-c2cnc(Cl)c(NS(=O)(=O)c3ccc(F)cc3F)c2C)c(C)cn1` [Compound I-250, N-(6-chloro-5-{[(2,4-difluorophenyl)sulfonyl]amino}-4,5′-dimethyl 3,4′-bipyridin-2′-yl)acetamide] gave a pIC50 of 7.30 to 8.00.
Same read-out and setting: under `CC(=O)Nc1cc(-c2cnc(N)c(S(=O)(=O)CCc3ccccc3)c2)ccn1` [Compound I-126, N-[6-amino-5-[(2-phenylethyl)sulfonyl]-3,4′-bipyridin-2′-yl]acetamide] stands 7.00 to 7.30; under `CCc1ccc(S(=O)(=O)Nc2cc(-c3ccnc(NC(C)=O)c3)cnc2C)cc1` [Compound I-44, N-(5-{[(4-ethylphenyl)sulfonyl]amino}-6-methyl-3,4′-bipyridin-2′-yl)acetamide], greater than 8.00; under `Cc1ncc(-c2ccnc(Nc3ccn(C)n3)c2)cc1NS(=O)(=O)c1ccc(F)cc1F` [Compound I-301, 2,4-difluoro-N-{6-methyl-2′-[(1-methyl-1H-pyrazole-3-yl)amino]-3,4′-bipyridin-5-yl]benzenesulfonamide], 7.30 to 8.00.
Compound `CC(=O)Nc1cc(-c2cnc(Cl)c(NS(=O)(=O)c3cc(Cl)ccc3Cl)c2C)ccn1` [Compound I-401, N-(6-chloro-5-{[(2,5-dichlorophenyl)sulfonyl]amino}-4-methyl-3,4′-bipyridin-2′-yl)acetamide] gave a pIC50 greater than 8.00.
The compound `Cc1c(-c2ccnc(Nc3ccncn3)c2)cnc(Cl)c1NS(=O)(=O)c1ccccc1` [Compound I-309, N-[6-chloro-4-methyl-2′-(pyrimidin-4-ylamino)-3,4′-bipyridin-5-yl]benzenesulfonamide] gave a pIC50 greater than 8.00.
Still for that read-out and setting: under `COc1cccc(S(=O)(=O)Nc2cc(-c3ccnc(NC(C)=O)c3)cnc2C)c1` [Compound I-123, N-(5-{[(3-methoxyphenyl)sulfonyl]amino}-6-methyl-3,4′-bipyridin-2′-yl}acetamide] stands greater than 8.00; under `CNc1ncc(-c2ccnc(NC(C)=O)c2)cc1NS(=O)(=O)c1ccc(F)cc1F` [Compound I-31, N-[5-{[(2,4-difluorophenyl)sulfonyl]amino}-6-(methylamino)-3,4′-bipyridin-2′-yl)acetamide], 7.30 to 8.00; under `Cc1nccc(Nc2cc(-c3cnc(C)c(NC(=O)N4CC(F)(F)C4)c3)ccn2)n1` [Compound I-482, 3,3-difluoro-N-{6-methyl-2′-[(2-methylpyrimidin-4-yl)amino]-3,4′-bipyridin-5-yl}azetidine-1-carboxamide], 7.00 to 7.30.
Still for that read-out and setting: under `CCN(c1cc(-c2ccnc(NC(C)=O)c2)cnc1C)S(=O)(=O)C1CC1` [Compound I-26, N-{5-[(cyclopropylsulfonyl)(ethyl)amino]-6-methyl-3,4′-bipyridin-2′-yl}acetamide] stands 7.00 to 7.30; under `Cc1nccc(Nc2cc(-c3cnc(C)c(NS(=O)(=O)N(C)C)c3)ccn2)n1` [Compound I-286, N,N-dimethyl-N′-{6-methyl-2′-[(2-methylpyrimidin-4-yl)amino]-3,4′-bipyridine-5-yl}sulfuric diamide], greater than 8.00; under `Cc1ncc(-c2ccnc(Nc3nc4ccccc4s3)c2)cc1NS(=O)(=O)c1ccc(F)cc1F` [Compound I-271, N-[2′-(1,3-benzothiazol-2-ylamino)-6-methyl-3,4′-bipyridin-5-yl]-2,4-difluorobenzenesulfonamide], 7.30 to 8.00.
In the case of `COC(=O)Nc1cc(-c2cnc(Cl)c(NS(=O)(=O)c3ccc(F)cc3F)c2C)ccn1` [Compound I-255, methyl (6-chloro-5-{[(2,4-difluorophenyl)sulfonyl]amino}-4-methyl-3,4′-bipyridin-2′-yl)carbamate], the pIC50 was greater than 8.00.
On the same count and under the same terms, under `CC(=O)Nc1cc(-c2cnc(Cl)c(NS(=O)(=O)c3ccc(C4CC4)cc3F)c2C)ccn1` [Compound I-335, N-(6-chloro-5-{[(4-cyclopropyl-2-fluorophenyl)sulfonyl]amino}-4-methyl-3,4′-bipyridin-2′-yl)acetamide] stands 7.30 to 8.00.
`CC(=O)Nc1cc(-c2cnc(N)c(C(=O)N3CCCCC3)c2)ccn1` [Compound I-10, N-[6-amino-5-(piperidin-1-ylcarbonyl)-3,4′-bipyridin-2′-yl]acetamide] had a pIC50 greater than 8.00.
Still for that read-out and setting: under `Cc1cnc(NC(=O)C2CC2)cc1-c1cnc(C)c(NS(=O)(=O)c2ccc(F)cc2F)c1` [Compound I-4, N-(5-{[(2,4-difluorophenyl)sulfonyl]amino}-5′,6-dimethyl-3,4′-bipyridin-2′-yl)cyclopropanecarboxamide] stands 7.30 to 8.00; under `CCN(CC)C(=O)c1cc(-c2ccnc(NC(C)=O)c2)cnc1N` [Compound I-27, 2′-acetamido-6-amino-N,N-diethyl-3,4′-bipyridine-5-carboxamide], greater than 8.00.
